Test systems include NCI-H226 lung; SW-620 colon; UACC-62 melanoma; NCI-H522 lung; KM12 colon; HT29 colon; SNB-19 CNS; UO-31 renal; 786-0 renal; DU-145 prostate; TK-10 renal; LOX IMVI melanoma; MDA-N; M14 melanoma; OVCAR-3 ovarian; HCT-116 colon; MDA-MB-231 breast; HOP-62 NSCLC; RXF 393 renal.
Assay in all cases: NCI tumour cell line growth inhibition, 48 h

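1) Cells in 96-well plates. 2) Compound, 48 h, 5 concentrations. 3) Linear interpolation between surrounding doses. 4) Unreached endpoint = highest concentration. At the TGI there is no net growth.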 Some results are limits rather than exact numbers.

As to `C/C=C1/CN2CCC34c5ccccc5N(C)C23C2CC1C4(C(=O)OC)C(O)O2` (stereo unspecified), the TGI in the assay on NCI-H226 lung, in the assay on SW-620 colon, in the assay on UACC-62 melanoma, in the assay on NCI-H522 lung, with KM12 colon and in the assay with HT29 colon was greater than 100 µM throughout. Moreover, the TGI in the assay on SNB-19 CNS, in the assay on UO-31 renal, in the assay on 786-0 renal, in the assay on DU-145 prostate, in the assay on TK-10 renal and with LOX IMVI melanoma was greater than 100 µM in each case. For the same compound, the TGI in the assay with MDA-N, in the assay on M14 melanoma, with OVCAR-3 ovarian, with HCT-116 colon, in the assay on MDA-MB-231 breast and in the assay with HOP-62 NSCLC was greater than 100 µM throughout.

As for `CC1=NN(c2cccc(Cl)c2)C(=N/c2nc3ccccc3s2)/C1=C\c1cccs1`, the TGI with NCI-H226 lung was greater than 100 µM; with SW-620 colon it was greater than 100 µM; in the assay with NCI-H522 lung, 93.8 µM; with KM12 colon, greater than 100 µM; in the assay with HT29 colon, greater than 100 µM; in the assay with UO-31 renal it was greater than 100 µM. The TGI in the assay on 786-0 renal, with DU-145 prostate, in the assay on TK-10 renal, with RXF 393 renal, in the assay on LOX IMVI melanoma and with MDA-N was greater than 100 µM in each case. The TGI is greater than 100 µM in the assay on M14 melanoma; 45.5 µM in the assay with OVCAR-3 ovarian; greater than 100 µM in the assay with HCT-116 colon; greater than 100 µM with MDA-MB-231 breast; greater than 100 µM with HOP-62 NSCLC.

For `CSc1nc2c(c(=O)[nH]1)N=C(c1ccc(Cl)cc1)CC(c1ccccc1)N2` (stereo unspecified), the TGI stood at 58.7 µM with NCI-H226 lung; 39.1 µM with SW-620 colon; 29.4 µM with NCI-H522 lung; 30 µM in the assay with KM12 colon; 31.4 µM in the assay with HT29 colon; 29.9 µM in the assay with SNB-19 CNS. Moreover, the TGI in the assay on UO-31 renal was found to be 26.8 µM; with 786-0 renal it was 30 µM; with DU-145 prostate it was 42.1 µM; in the assay with RXF 393 renal, 34.4 µM; with LOX IMVI melanoma it was 44.2 µM; in the assay with MDA-N, 31.4 µM. Moreover, the TGI in the assay with M14 melanoma came out at 29.9 µM; in the assay on OVCAR-3 ovarian it was 28.5 µM; with HCT-116 colon, 51.4 µM; with MDA-MB-231 breast it was 30.8 µM; with HOP-62 NSCLC it was 31.7 µM.

In the case of `O=C1C(=c2cc3c(c4ccccc24)=NC24CCCCC2C(c2ccccc2)C=C(c2ccccc2)N34)C(=O)c2ccccc21` (stereo unspecified), the TGI is greater than 100 µM in the assay with NCI-H226 lung; greater than 100 µM with SW-620 colon; 47.5 µM with NCI-H522 lung; greater than 100 µM in the assay on KM12 colon; greater than 100 µM in the assay with HT29 colon; greater than 100 µM in the assay with SNB-19 CNS. Further, the TGI in the assay on UO-31 renal was greater than 100 µM; in the assay with 786-0 renal it was greater than 100 µM; with DU-145 prostate it was greater than 100 µM; with TK-10 renal, greater than 100 µM; in the assay on RXF 393 renal, 49 µM; with LOX IMVI melanoma it was greater than 100 µM. In addition, the TGI with MDA-N, in the assay on M14 melanoma, in the assay on OVCAR-3 ovarian, with HCT-116 colon, with MDA-MB-231 breast and with HOP-62 NSCLC was greater than 100 µM in each case.

As for `CN(C)CCNC1=CC(=O)c2nc3ccccc3c3ccnc1c23`, the TGI with NCI-H226 lung amounted to 18.8 µM; with SW-620 colon, 18 µM; with UACC-62 melanoma it was 18.2 µM; in the assay on NCI-H522 lung it was 16.2 µM; with KM12 colon, 17.4 µM; with HT29 colon it was 14.2 µM. Besides, the TGI in the assay with SNB-19 CNS was 29.6 µM; in the assay with UO-31 renal it was 23.8 µM; with 786-0 renal it was 15.6 µM; in the assay with DU-145 prostate it was 22.4 µM; in the assay with TK-10 renal, 97.5 µM; in the assay on LOX IMVI melanoma, 5.94 µM. Besides, the TGI in the assay with MDA-N came out at 20.7 µM; in the assay on M14 melanoma it was 21.6 µM; in the assay on OVCAR-3 ovarian, 16.4 µM; in the assay with HCT-116 colon, 14.8 µM; in the assay with MDA-MB-231 breast, 16 µM; in the assay with HOP-62 NSCLC, 25.6 µM.

As to `O=[N+]([O-])c1cc(-c2nnc(C34CC5CC(CC(C5)C3)C4)o2)cc([N+](=O)[O-])c1`, the TGI in the assay on NCI-H226 lung was greater than 100 µM; in the assay with SW-620 colon, 37.8 µM; in the assay with UACC-62 melanoma it was greater than 100 µM; with NCI-H522 lung, greater than 100 µM; with KM12 colon, greater than 100 µM; in the assay with HT29 colon it was 32.2 µM. In addition, the TGI in the assay on SNB-19 CNS, in the assay on UO-31 renal, in the assay with 786-0 renal, in the assay with DU-145 prostate, with RXF 393 renal and in the assay with LOX IMVI melanoma was greater than 100 µM each time. Also, the TGI in the assay with MDA-N is greater than 100 µM; in the assay on M14 melanoma, 70.4 µM; with OVCAR-3 ovarian it was greater than 100 µM; in the assay with HCT-116 colon, greater than 100 µM; in the assay on MDA-MB-231 breast, greater than 100 µM; in the assay on HOP-62 NSCLC, greater than 100 µM.
